From US20230348473A1, “SUBSTITUTED PYRIDINES AS PARP1 INHIBITORS” (Xinthera, Inc., priority 2022, published 2023)

Experiments:
[1] = HLM metabolic stability, predicted human hepatic clearance; format: in vitro ADME; details: well-stirred model, 1 μM
Description: Working stocks of individual test articles were prepared at a concentration of 100 μM by diluting 10 mM stocks prepared in DMSO 100-fold (v:v) into ACN. Thawed hepatic microsomes were suspended in 100 mM potassium phosphate buffer, pH 7.4 to a microsomal protein concentration of 0.562 mg/mL. Diluted microsomes were combined with a solution of 10 mM NADPH, and the mixture was pre-warmed to 37° C. for 8 min. Reactions were initiated by addition of the test article working stocks to achieve a final test article concentration of 1 μM. Final microsomal protein and NADPH concentrations were 0.5 mg/mL and 1 mM, respectively. Incubations containing NADPH were run in duplicate. Test article losses mediated by non-CYP mechanisms were evaluated in a parallel set of incubations run in the absence of NADPH. Incubations lacking NADPH consisted of 1 replicate per test article. Following incubation in a 37° C. water bath, aliquots of individual reactions were quenched with cold ACN containing internal standards at […], 15-, 30-, 60-, 90-, and 120-min. Precipitated protein was pelleted via refrigerated centrifugation. Supernatants were diluted into an equal volume of pure water and mixed well prior to analysis via LC-MS/MS. In vitro intrinsic clearances (CLint) in μL/min/mg were determined for each incubation from calculated in vitro half-lives determined using a standard log-linear regression approach. In vitro CLint values were scaled up using the following physiological scaling factors: 40 mg microsomal protein/g human liver and 25.7 g human liver/kg body weight.

[2] = Caco-2 bidirectional permeability; format: in vitro ADME; details: human; for Papp A→B at 2 h, 5 μM: apical-to-basolateral, read-out: Caco-2 AB; for Papp B→A at 2 h, 5 μM: basolateral-to-apical, read-out: Caco-2 BA; for efflux ratio at 2 h, 5 μM: efflux ratio Papp (B-to-A)/Papp (A-to-B)
Description: Following a 1-hr. equilibration period in cell culture medium maintained at 37° C. in an incubator containing a 5% CO2 atmosphere at 95% relative humidity, Corning 96-well HTS Transwell® permeable support plates were seeded with 34,300 Caco-2 cells (ATCC) per well. Following seeding, plates were cultured for 14-18 days with cell culture medium replacement every other day beginning no later than 24 hr. after plating. Monolayer barrier integrity was monitored during the culture period using transepithelial electrical resistance (TEER) measurements taken with a Millicell Epithelial Volt-Ohm system. Caco-2 monolayers were considered ready for use when the TEER value >230 ohm·cm^2. Working stocks of individual test articles were prepared at a concentration of 5 μM by diluting 1 mM stocks prepared in DMSO into 10 mM HEPES. Prior to conducting the assay, Caco-2 plates were washed twice with prewarmed 10 mM HEPES and then equilibrated in 10 mM HEPES for 30 min. at 37° C. Following equilibration, test article flux was tested bidirectionally (in both the apical-to-basolateral and basolateral-to-apical directions) by adding test article working stocks to either the apical or basolateral chambers. Blank 10 mM HEPES was added to the opposite sides. Plates were then incubated at 37° C. for 2 hours. At the end of the incubation, aliquots from both sides of each monolayer were quenched with 4 volumes of ACN containing internal standards. Following a centrifugation step, supernatants were diluted with pure water prior to analysis via LC-MS/MS.
Apparent permeability (Papp, ×10^−6 cm/s) was calculated for all transport assays using the following equation: […]
Where: Papp is apparent permeability (×10^−6 cm/s). • dQ/dt is the rate of drug transport (pmol/s). • A is the surface area of the membrane (cm^2). • D0 is the initial donor concentration (nM; pmol/cm^3).
Efflux ratio was determined by calculating the ratio of the Papp in the basolateral-to-apical direction to the Papp in the apical-to-basolateral direction using the following equation: […]
Where: Papp (B-to-A) is the apparent permeability in the basolateral-to-apical direction. • Papp (A-to-B) is the apparent permeability in the apical-to-basolateral direction.

[3] = hHEP metabolic stability, predicted human hepatic clearance; format: in vitro ADME; details: well-stirred model, 1 μM
Description: Working stocks of individual test articles were prepared at concentrations of 100 μM by diluting 10 mM stocks prepared in DMSO 100-fold (v:v) into ACN/H2O (50/50, v:v). Human cryopreserved hepatocytes were thawed in a 37° C. water bath in <2 min., suspended in thawing media, and then centrifuged at 100×g for 10 min. Thawing media was aspirated, and pelleted hepatocytes were resuspended into incubation media at 1.5×10^6 cells/mL. Cell viability was determined using an Acridine Orange/Propidium Iodine stain, and hepatocytes were further diluted with incubation media to 0.5×10^6 viable cells/mL. Hepatocyte aliquots of 198 μL were added to wells of a 96-well plate, and test article incubations were initiated by the addition of 2 μL of 100 μM working stocks. Plates were incubated at 37° C. in a 5% CO2 atmosphere at 95% relative humidity on an orbital shaker at 300 rpm. Incubations were performed in duplicate. Following incubation, aliquots of individual reactions were terminated by addition of ACN containing internal standards at 0, 30-, 60-, 90-, 120-, and 240-min. Precipitated protein was pelleted via refrigerated centrifugation. Supernatants were diluted into an equal volume of pure water and mixed well prior to analysis via LC-MS/MS. In vitro intrinsic clearances (CLint) in μL/min/10^6 cells were determined for each incubation from calculated in vitro half-lives determined using a standard log-linear regression approach. In vitro CLint values were scaled up using the following physiological scaling factors: 99×10^6 cells/g human liver and 25.7 g human liver/kg body weight.

[4] = biological target: PARP2 (Homo sapiens (Human), UniProt Q9UGN5); experiment: Biochemical fluorescence polarization (FP) assay, PARPi-FL displacement, PARP2; format: binding; details: 20 nM protein, 3 nM PARPi-FL, 4 h
Description: (§1) To characterize our compounds, we utilized an assay measuring the displacement of a commercially available fluorescently labeled PARP 1/2 inhibitor (PARPi-FL, Tocris Biosciences, #6461) as exemplified in assays performed in WO2014/064149 and WO2021/013735A1. The assay was performed utilizing the following method: Compounds were dissolved in DMSO an Echo550 liquid handler was utilized to make serial dilations in the desired concentration range in Optiplate-384F plates. 100% DMSO was used for the high (with protein) and low (without protein) control samples. 20 nL of compound or DMSO alone was added to individual assay plate wells. […] The PARPi-FL was then added at a final concentration of 3 nM. The assay plate is centrifuged at 1000 rpm for 1 min and incubated for 4 h at room temperature. […] XLFit (equation 201) is used to calculate a reported IC50 for each compound.

[5] = biological target: PARP1 (Homo sapiens (Human), UniProt P09874); experiment: Biochemical fluorescence polarization (FP) assay, PARPi-FL displacement, PARP1; format: binding; details: 20 nM protein, 3 nM PARPi-FL, 4 h
Description: as §1

Chain of PARP1 (P09874 whole entry): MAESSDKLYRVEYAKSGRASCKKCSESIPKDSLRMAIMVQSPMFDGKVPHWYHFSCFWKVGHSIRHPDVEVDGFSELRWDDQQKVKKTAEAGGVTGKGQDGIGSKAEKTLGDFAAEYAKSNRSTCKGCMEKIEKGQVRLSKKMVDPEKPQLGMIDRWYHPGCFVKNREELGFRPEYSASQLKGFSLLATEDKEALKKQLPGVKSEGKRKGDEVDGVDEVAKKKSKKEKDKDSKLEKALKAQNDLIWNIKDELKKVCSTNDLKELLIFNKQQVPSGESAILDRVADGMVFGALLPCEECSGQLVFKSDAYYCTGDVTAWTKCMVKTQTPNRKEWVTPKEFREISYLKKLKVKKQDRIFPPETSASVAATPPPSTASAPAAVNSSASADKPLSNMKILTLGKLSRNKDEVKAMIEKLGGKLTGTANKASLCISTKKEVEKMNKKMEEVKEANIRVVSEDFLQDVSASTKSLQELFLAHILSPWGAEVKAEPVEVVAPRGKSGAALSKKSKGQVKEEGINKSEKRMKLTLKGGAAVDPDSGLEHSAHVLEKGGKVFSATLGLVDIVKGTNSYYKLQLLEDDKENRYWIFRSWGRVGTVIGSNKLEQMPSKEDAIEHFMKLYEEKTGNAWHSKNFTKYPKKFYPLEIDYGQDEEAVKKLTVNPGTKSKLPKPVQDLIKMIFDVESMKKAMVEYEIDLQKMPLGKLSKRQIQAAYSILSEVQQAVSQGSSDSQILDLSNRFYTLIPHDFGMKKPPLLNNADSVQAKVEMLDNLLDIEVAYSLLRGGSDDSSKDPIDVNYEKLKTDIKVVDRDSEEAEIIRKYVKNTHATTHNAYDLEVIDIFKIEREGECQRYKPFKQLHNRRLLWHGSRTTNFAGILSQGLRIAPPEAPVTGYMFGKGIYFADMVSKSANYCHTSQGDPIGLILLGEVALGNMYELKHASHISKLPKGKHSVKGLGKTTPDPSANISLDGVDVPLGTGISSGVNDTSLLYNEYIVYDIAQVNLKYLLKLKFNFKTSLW
Chain of PARP2 (Q9UGN5 whole entry): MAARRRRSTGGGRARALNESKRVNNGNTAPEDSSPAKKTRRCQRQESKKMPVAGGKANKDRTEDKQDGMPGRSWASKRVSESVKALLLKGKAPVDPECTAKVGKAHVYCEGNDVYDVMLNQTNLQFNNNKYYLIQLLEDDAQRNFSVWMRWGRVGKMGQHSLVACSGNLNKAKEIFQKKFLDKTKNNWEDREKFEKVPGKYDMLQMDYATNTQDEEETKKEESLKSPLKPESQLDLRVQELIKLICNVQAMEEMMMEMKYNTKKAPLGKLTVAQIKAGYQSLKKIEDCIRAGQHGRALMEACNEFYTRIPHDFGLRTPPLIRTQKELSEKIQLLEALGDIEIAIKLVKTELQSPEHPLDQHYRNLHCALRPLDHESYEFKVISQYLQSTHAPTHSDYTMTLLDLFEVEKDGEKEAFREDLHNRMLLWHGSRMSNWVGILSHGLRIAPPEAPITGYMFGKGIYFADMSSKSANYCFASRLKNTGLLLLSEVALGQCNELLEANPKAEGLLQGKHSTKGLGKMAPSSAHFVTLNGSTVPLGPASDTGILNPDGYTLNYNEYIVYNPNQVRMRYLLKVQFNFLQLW

SMILES	HLM Clh [1]	Papp A→B at 2 h, 5 μM [2]	Papp B→A at 2 h, 5 μM [2]	HHEP Clh [3]	efflux ratio at 2 h, 5 μM [2]	IC50 [4]	IC50 [5]
CNC(=O)c1ccc(N2CCN(Cc3ccc4c5c(c(=O)[nH]c4c3)CCO5)CC2)c(C)n1 [Comp. Ex. 1, N,6-dimethyl-5-[4-({4-oxo-2H,3H,5H-furo[3,2-c]quinolin-7-yl}methyl)piperazin-1-yl]pyridine-2-carboxamide]	<4 mL/min/kg	2.5 ×10⁻⁶ cm/s	26.2 ×10⁻⁶ cm/s	<3.3 mL/min/kg	–	–	–
CNC(=O)c1ccc(N2CCN(Cc3ccc4c5c(c(=O)[nH]c4c3)CCO5)CC2)c(Cl)n1 [Comp. Ex. 2, 6-chloro-N-methyl-5-[4-({4-oxo-2H,3H,5H-furo[3,2-c]quinolin-7-yl}methyl)piperazin-1-yl]pyridine-2-carboxamide]	4.2 mL/min/kg	2.4 ×10⁻⁶ cm/s	21.9 ×10⁻⁶ cm/s	6.6 mL/min/kg	9.3	–	–
CNC(=O)c1ccc(N2CCN(Cc3cc(F)c4c5c(c(=O)[nH]c4c3)COC5)CC2)c(F)n1 [Comp. Ex. 3, 6-fluoro-5-(4-((9-fluoro-4-oxo-1,3,4,5-tetrahydrofuro[3,4-c]quinolin-7-yl)methyl)piperazin-1-yl)-N-methylpicolinamide]	7.2 mL/min/kg	0.8 ×10⁻⁶ cm/s	5.5 ×10⁻⁶ cm/s	7.1 mL/min/kg	7.3	–	–
CNC(=O)c1ccc(N2CCN(Cc3ccc4c5c(c(=O)[nH]c4c3F)CCC5)CC2)c(F)n1 [Comp. Ex. 4]	11.5 mL/min/kg	11.5 ×10⁻⁶ cm/s	14.5 ×10⁻⁶ cm/s	14.5 mL/min/kg	–	–	–
O=C(NC1CC1)c1ccc(N2CCN(Cc3ccc4c([nH]c(=O)c5ccnn54)c3F)CC2)c(F)n1 [Example 3]	–	–	–	–	–	> 100000 nM	22 nM
Cc1cc2c(=O)[nH]c3c(F)c(CN4CCN(c5ccc(C(=O)NC6CC6)nc5F)CC4)ccc3n2n1 [Example 4]	–	–	–	–	–	> 100000 nM	16 nM
CNC(=O)c1ccc(N2CCN(Cc3ccc4c([nH]c(=O)c5cc(C)nn54)c3F)CC2)c(F)n1 [Example 5]	–	–	–	–	–	> 100000 nM	41 nM
CNC(=O)c1ccc(N2CCN(Cc3ccc4c([nH]c(=O)c5ccoc54)c3F)CC2)c(F)n1 [Example 6, 6-fluoro-5-[4-({6-fluoro-4-oxo-5H-furo[3,2-c]quinolin-7-yl}methyl)piperazin-1-yl]-N-methylpyridine-2-carboxamide]	–	–	–	–	–	> 100000 nM	21 nM
CNC(=O)c1ccc(N2CCN(Cc3ccc4c([nH]c(=O)n5cccc45)c3F)CC2)c(F)n1 [Example 7, 6-fluoro-5-[4-({7-fluoro-5-oxo-6H-pyrrolo[1,2-c]quinazolin-8-yl}methyl)piperazin-1-yl]-N-methylpyridine-2-carboxamide]	–	–	–	–	–	> 100000 nM	18 nM
O=C(NCC(F)F)c1ccc(N2CCN(Cc3ccc4c([nH]c(=O)c5ccoc54)c3F)CC2)c(F)n1 [Example 11]	–	–	–	–	–	> 100000 nM	14 nM

Further lines, results first:

HLM Clh [1]	Papp A→B at 2 h, 5 μM [2]	Papp B→A at 2 h, 5 μM [2]	HHEP Clh [3]	efflux ratio at 2 h, 5 μM [2]	IC50 [4]	IC50 [5]	SMILES
–	–	–	–	–	> 100000 nM	25 nM	Cc1cc2c(=O)[nH]c3c(F)c(CN4CCN(c5ccc(C(=O)NCC(F)F)nc5F)CC4)ccc3n2n1 [Example 13]
–	–	–	–	–	> 100000 nM	10 nM	O=C(NC1CC1)c1ccc(N2CCN(Cc3ccc4c([nH]c(=O)c5ccoc54)c3F)CC2)c(F)n1 [Example 14]
–	–	–	–	–	> 100000 nM	12 nM	O=C(NCC(F)F)c1ccc(N2CCN(Cc3ccc4c5c(c(=O)[nH]c4c3F)CCO5)CC2)c(F)n1 [Example 15]
–	–	–	–	–	> 100000 nM	14 nM	COCCNC(=O)c1ccc(N2CCN(Cc3ccc4c([nH]c(=O)c5cc(C)nn54)c3F)CC2)c(F)n1 [Example 17]
–	–	–	–	–	> 100000 nM	100 nM	CNC(=O)c1ccc(N2CCN(Cc3ccc4c([nH]c(=O)c5cnn(C)c54)c3F)CC2)c(F)n1 [Example 19, 6-fluoro-5-[4-({6-fluoro-1-methyl-4-oxo-5H-pyrazolo[4,3-c]quinolin-7-yl}methyl)piperazin-1-yl]-N-methylpyridine-2-carboxamide]
–	–	–	–	–	> 100000 nM	11 nM	CNC(=O)c1ccc(N2CCN(Cc3ccc4c([nH]c(=O)c5cn(C)nc54)c3F)CC2)c(F)n1 [Example 20, 6-fluoro-5-[4-({6-fluoro-2-methyl-4-oxo-5H-pyrazolo[4,3-c]quinolin-7-yl}methyl)piperazin-1-yl]-N-methylpyridine-2-carboxamide]
–	–	–	–	–	> 100000 nM	26 nM	CNC(=O)c1ccc(N2CCN(Cc3ccc4c([nH]c(=O)c5c(C)cnn54)c3F)CC2)c(F)n1 [Example 23]
–	–	–	–	–	> 100000 nM	13 nM	CNC(=O)c1ccc(N2CCN(Cc3ccc4c5c(c(=O)[nH]c4c3F)CCO5)CC2)cn1 [Example 26]
–	–	–	–	–	> 100000 nM	10 nM	CNC(=O)c1ccc(N2CCN(Cc3ccc4c([nH]c(=O)c5c(F)cnn54)c3F)CC2)c(F)n1 [Example 28, 5-[4-({3,6-difluoro-4-oxo-5H-pyrazolo[1,5-a]quinoxalin-7-yl}methyl)piperazin-1-yl]-6-fluoro-N-methylpyridine-2-carboxamide]
